# Results taken from patent US12365674B2, “Inhibitors of histone deacetylase useful for the treatment or prevention of HIV infection” (Merck Sharp & Dohme LLC, priority 2019, dated 2025).
# Legend:
# [1] = target: T1, human HDAC3/SMRT heterodimer (Homo sapiens, UniProt O15379); test: Human HDAC enzyme inhibitor Fluor-de-Lys assay, HDAC3/SMRT; assay type: biochemical; conditions: HDAC3/SMRT 0.3 nM enzyme, 20 μM substrate BML-KI104, 10 μM IP4, 3 h pre-incubation, 60 min reaction; read-out: HDAC3_IC50
# T1 construct: Full length human HDAC3-FLAG was expressed in HEK-293F cells along with SMRT; host or cells: HEK-293F cells
# Source text: (§1) Recombinant human HDAC8 (catalog number BML-SE145-0100) and HDAC10 (catalog number BML-SE559-0050) enzymes, HDAC substrates BML-KI104 and BML-KI178, and HDAC developer solutions BML-KI105 and BML-KI176 were purchased from Enzo Life Sciences (Farmingdale, NY). Recombinant human HDAC5 and HDAC11 were purchased from BPS Bioscience (San Diego, CA)(catalog numbers 50045 and 50021). Substrate Boc-Lys(TFA)-AMC was obtained from Bachem (Bupendorf, Switzerland) (catalog number 1-1985). HDAC inhibitor suberoylanilide hydroxamic acid (SAHA) was obtained from Indofine (Hillsborough Township, NJ) and trichostatin A (TSA) was obtained from Sigma-Aldrich (St. Louis, MO). […] HEPES pH 8.0 was obtained from Boston BioProducts (Ashland, MA), Tween-20 from Fisher Scientific (Hampton, NH)(catalog number BP337), TCEP from Calbiochem and 7.5% bovine serum albumin (BSA) from Life Technologies (Carlsbad, CA) (catalog number 15260037). 384-well, black assay plates were obtained from Corning (Corning, NY) (catalog number 3575).
# (§2) Recombinant human HDAC1, HDAC2, and HDAC3/SMRT heterodimer were prepared by Merck Research Laboratories. […] The eluted protein was then passed over an anti-HDAC1 immunoaffinity column to remove any complexes containing HDAC1. […]
# (§3) The histone deacetylase activities of HDAC1, HDAC2, HDAC3, HDAC6, and HDAC8 were measured in modified Fluor-de-Lys assays in 384-well format. In this assay, HDAC enzymes are initially incubated with an ε-acetyl (or -trifluoroacetyl)-L-lysine-containing substrate with a C-terminal amide having aminomethylcoumarin as the amine component. HDACs cleave the ε-acetyl group, rendering the resulting product susceptible to AMC cleavage by trypsin. The released AMC is then detected by its fluorescence.
# (§4) The HDAC 1, 2 assays employed buffer A, which contained 20 mM HEPES, pH 8.0, 1 mM MgCl2, 137 mM NaCl, 2.7 mM KCl, 0.05% BSA. The HDAC3/SMRT assay employed buffer B, consisting of 20 mM HEPES, pH 8.0, 1 mM MgCl2, 50 mM NaCl, 2.7 mM KCl, 0.05% BSA, 0.005% Tween 20, and 10 μM IP4. The HDAC6 assay employed buffer C, consisting of 20 mM HEPES, pH 8.0, 1 mM MgCl2, 137 mM NaCl, 2.7 mM KCl, 0.5 mM TCEP (Calbiochem) and 0.05% BSA. The HDAC8 assay employed buffer D, consisting of 20 mM HEPES, pH 8.0, 1 mM MgCl2, 100 mM NaCl, 20 mM KCl, 0.1% n-octyl-β-D-glucoside (Anatrace, Maumee, OH) and 0.05% BSA. All steps were performed at room temperature (23° C.). The assay was performed by pre-incubating serial dilutions of test compounds with the target HDAC prior to initiation with substrate. Each compound was titrated in a 10-point dose response, using a 1:3 fold dilution scheme, with 0.15 ul of solution added by ECHO555 to the plate, followed by the addition of 20 μl of the appropriate HDAC isoform diluted in appropriate assay buffer. […] Final conditions used for each assay were: 1. HDAC 1, 0.3 nM total enzyme, 20 μM substrate BML-K1104; 2. HDAC 2, 1.5 nM total enzyme, 40 μM substrate BML-K1104; 3. HDAC 3/SMRT, 0.3 nM total enzyme, 20 μM substrate BML-K1104; 4. HDAC 6, 1.3 nM total enzyme, 2.5 μM substrate BML-K1104; 5. HDAC 8, 1.3 nM total enzyme, 200 μM substrate BML-K1178; the final high dose of test compound was 30 μM. […] The reactions were stopped and developed by addition of 30 ul of HDAC developer solution containing a saturating level of HDAC inhibitor as follows: 1.
# [2] = target: T2, human HDAC2 (Homo sapiens, UniProt Q92769); test: Human HDAC enzyme inhibitor Fluor-de-Lys assay, HDAC2; assay type: biochemical; conditions: 1.5 nM enzyme, 40 μM substrate BML-KI104, 3 h pre-incubation, 60 min reaction; read-out: HDAC2_IC50
# T2 construct: Full length human HDAC2-FLAG was expressed in baculovirus infected Sf9 cells; host or cells: baculovirus infected Sf9 cells
# Source text: as §1, §2, §3, §4
# T1 sequence (O15379 whole entry): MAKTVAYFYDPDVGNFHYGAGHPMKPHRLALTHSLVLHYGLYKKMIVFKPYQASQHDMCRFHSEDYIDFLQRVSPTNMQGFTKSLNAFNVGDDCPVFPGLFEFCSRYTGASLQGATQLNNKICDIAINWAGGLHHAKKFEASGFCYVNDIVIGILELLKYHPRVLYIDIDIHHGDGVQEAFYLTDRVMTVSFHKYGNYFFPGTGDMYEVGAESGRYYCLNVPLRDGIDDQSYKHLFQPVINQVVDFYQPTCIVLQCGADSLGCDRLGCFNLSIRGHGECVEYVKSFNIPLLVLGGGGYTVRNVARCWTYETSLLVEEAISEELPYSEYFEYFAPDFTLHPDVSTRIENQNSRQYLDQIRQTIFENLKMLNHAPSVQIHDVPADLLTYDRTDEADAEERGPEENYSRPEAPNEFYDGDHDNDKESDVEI
# T1 sequence (Q9Y618 1-899 partner limits assumed): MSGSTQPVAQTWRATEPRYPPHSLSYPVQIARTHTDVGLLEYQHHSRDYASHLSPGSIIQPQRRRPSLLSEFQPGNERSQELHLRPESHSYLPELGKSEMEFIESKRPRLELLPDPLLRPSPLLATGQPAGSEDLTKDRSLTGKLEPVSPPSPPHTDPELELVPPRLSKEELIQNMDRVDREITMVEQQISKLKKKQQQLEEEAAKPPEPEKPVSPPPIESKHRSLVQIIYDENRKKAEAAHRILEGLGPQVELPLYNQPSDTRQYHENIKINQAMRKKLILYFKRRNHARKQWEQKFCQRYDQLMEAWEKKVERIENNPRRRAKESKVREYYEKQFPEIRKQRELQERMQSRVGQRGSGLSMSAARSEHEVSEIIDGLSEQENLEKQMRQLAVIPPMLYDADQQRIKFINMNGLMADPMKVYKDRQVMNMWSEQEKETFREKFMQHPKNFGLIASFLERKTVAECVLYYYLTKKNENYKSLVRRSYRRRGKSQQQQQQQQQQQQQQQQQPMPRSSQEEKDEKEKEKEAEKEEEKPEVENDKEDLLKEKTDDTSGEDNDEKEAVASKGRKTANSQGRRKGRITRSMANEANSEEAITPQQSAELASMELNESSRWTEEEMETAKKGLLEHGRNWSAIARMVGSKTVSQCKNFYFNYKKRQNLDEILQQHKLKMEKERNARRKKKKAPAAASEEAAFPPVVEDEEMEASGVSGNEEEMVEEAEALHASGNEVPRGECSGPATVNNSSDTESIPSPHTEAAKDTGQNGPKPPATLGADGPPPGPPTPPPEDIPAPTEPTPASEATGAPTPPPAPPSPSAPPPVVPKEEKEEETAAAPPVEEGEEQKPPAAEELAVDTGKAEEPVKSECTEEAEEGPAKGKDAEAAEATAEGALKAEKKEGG
# T2 sequence (Q92769 whole entry): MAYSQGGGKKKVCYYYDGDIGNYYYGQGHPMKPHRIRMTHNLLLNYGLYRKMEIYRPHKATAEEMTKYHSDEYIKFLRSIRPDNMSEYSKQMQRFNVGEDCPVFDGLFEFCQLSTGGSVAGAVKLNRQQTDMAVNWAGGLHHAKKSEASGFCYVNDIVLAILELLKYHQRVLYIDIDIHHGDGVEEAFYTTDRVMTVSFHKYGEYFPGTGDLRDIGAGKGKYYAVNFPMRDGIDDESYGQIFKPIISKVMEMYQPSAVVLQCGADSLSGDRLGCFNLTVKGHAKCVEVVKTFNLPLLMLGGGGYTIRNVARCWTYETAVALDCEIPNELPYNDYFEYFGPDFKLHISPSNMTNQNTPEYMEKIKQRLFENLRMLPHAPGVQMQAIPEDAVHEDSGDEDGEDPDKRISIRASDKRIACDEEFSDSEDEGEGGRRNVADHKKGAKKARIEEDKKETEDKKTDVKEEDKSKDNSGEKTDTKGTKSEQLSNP
smiles,measurement,setting,value
"COc1nc2ccccc2cc1-c1cnc([C@@H](N)COCCCC(=O)c2ncco2)[nH]1 [Compound 1, (R)-4-(2-amino-2-(5-(2-methoxyquinolin-3-yl)-1H-imidazol-2-yl)ethoxy)-1-(oxazol-2-yl)butan-1-one]",IC50,[1],185 nM
same,IC50,[2],1000 nM
"N[C@@H](COCCCC(=O)c1ccon1)c1ncc(-c2ccccc2F)[nH]1 [Compound 2, (R)-4-(2-amino-2-(5-(2-fluorophenyl)-1H-imidazol-2-yl)ethoxy)-1-(isoxazol-3-yl)butan-1-one]",IC50,[1],272 nM
same,IC50,[2],≥ 900 nM
"CCC(=O)CCCOC[C@H](NC(=O)c1cncs1)c1ncc(-c2cc3ccccc3nc2OC)[nH]1 [Compound 5, N-{(1R)-1-[5-(2-methoxyquinolin-3-yl)-1H-imidazol-2-yl]-2-[(4-oxohexyl)oxy]ethyl}-1,3-thiazole-5-carboxamide]",IC50,[2],1160 nM
"CCC(=O)CCCOC[C@H](NC(=O)C12CCN(CC1)CC2)c1ncc(-c2cc3ccccc3nc2OC)[nH]1 [Compound 6, N-{(1R)-1-[5-(2-methoxyquinolin-3-yl)-1H-imidazol-2-yl]-2-[(4-oxohexyl)oxy]ethyl}-1-azabicyclo[2.2.2]octane-4-carboxamide]",IC50,[1],87.3 nM
same,IC50,[2],925 nM
"CNC(=O)C(=O)CCCOC[C@H](NC(=O)c1cncs1)c1ncc(-c2cc3ccccc3nc2OC)[nH]1 [Compound 8, N-[(1R)-1-[5-(2-methoxyquinolin-3-yl)-1H-imidazol-2-yl]-2-{[5-(methylamino)-4,5-dioxopentyl]oxy}ethyl]-1,3-thiazole-5-carboxamide]",IC50,[1],1.5 nM
same,IC50,[2],2.5 nM
"CNC(=O)C(=O)CCCOC[C@H](NC(=O)C12CCN(CC1)CC2)c1ncc(-c2cc3ccccc3nc2OC)[nH]1 [Compound 9, N-[(1R)-1-[5-(2-methoxyquinolin-3-yl)-1H-imidazol-2-yl]-2-{[5-(methylamino)-4,5-dioxopentyl]oxy}ethyl]-1-azabicyclo[2.2.2]octane-4-carboxamide]",IC50,[1],1.5 nM
same,IC50,[2],1.5 nM
"COc1nc2ccccc2cc1-c1cnc([C@H](COCCCC(=O)c2ncco2)NC(=O)c2cncs2)[nH]1 [Compound 10, N-{(1R)-1-[5-(2-methoxyquinolin-3-yl)-1H-imidazol-2-yl]-2-[4-(1,3-oxazol-2-yl)-4-oxobutoxy]ethyl}-1,3-thiazole-5-carboxamide]",IC50,[1],3.6 nM
same,IC50,[2],25.9 nM
"COc1nc2ccccc2cc1-c1cnc([C@H](COCCCC(=O)c2ncco2)NC(=O)[C@H]2CC23CCN(C)CC3)[nH]1 [Compound 11, (1S)-N-{(1R)-1-[5-(2-methoxyquinolin-3-yl)-1H-imidazol-2-yl]-2-[4-(1,3-oxazol-2-yl)-4-oxobutoxy]ethyl}-6-methyl-6-azaspiro[2.5]octane-1-carboxamide]",IC50,[1],5 nM
same,IC50,[2],9.7 nM
"COc1nc2ccccc2cc1-c1cnc([C@H](COCCCC(=O)c2ncco2)NC(=O)C23CCN(CC2)CC3)[nH]1 [Compound 12, N-{(1R)-1-[5-(2-methoxyquinolin-3-yl)-1H-imidazol-2-yl]-2-[4-(1,3-oxazol-2-yl)-4-oxobutoxy]ethyl}-1-azabicyclo[2.2.2]octane-4-carboxamide]",IC50,[1],7.7 nM
same,IC50,[2],29.7 nM
"COc1nc2ccccc2cc1-c1cnc([C@H](COCCCC(=O)c2ncco2)NC(=O)CN(C)C)[nH]1 [Compound 13, N-{(1R)-1-[5-(2-methoxyquinolin-3-yl)-1H-imidazol-2-yl]-2-[4-(1,3-oxazol-2-yl)-4-oxobutoxy]ethyl}-N~2~,N~2~- dimethylglycinamide]",IC50,[1],3.8 nM
same,IC50,[2],14.4 nM
"COc1nc2ccccc2cc1-c1cnc([C@H](COCCCC(=O)c2ccon2)NC(=O)CN(C)C)[nH]1 [Compound 14, N-{(1R)-2-(4-isoxazol-3-yl-4-oxobutoxy)-1-[5-(2-methoxyquinolin-3-yl)-1H-imidazol-2-yl]ethyl}-N~2~,N~2~- dimethylglycinamide]",IC50,[1],2.2 nM
same,IC50,[2],3.2 nM
"CN1CC(C(=O)N[C@@H](COCCCC(=O)c2ccon2)c2ncc(-c3ccccc3F)[nH]2)C1 [Compound 15, N-[(1R)-1-[5-(2-fluorophenyl)-1H-imidazol-2-yl]-2-(4-isoxazol-3-yl-4-oxobutoxy)ethyl]-1-methylazetidine-3-carboxamide]",IC50,[1],1.6 nM
same,IC50,[2],31.3 nM
"CN1CC(C(=O)N[C@@H](COCCCC(=O)c2ccon2)c2[nH]c(-c3ccc(F)cc3)nc2Cl)C1 [Compound 16, N-[(1R)-1-[4-chloro-2-(4-fluorophenyl)-1H-imidazol-5-yl]-2-(4-isoxazol-3-yl-4-oxobutoxy)ethyl]-1-methylazetidine-3-carboxamide]",IC50,[1],9.2 nM
same,IC50,[2],56.7 nM
"CN(C)CC(=O)N[C@@H](COCCCC(=O)c1ccon1)c1[nH]c(-c2ccc(F)cc2)nc1Cl [Compound 17, N-[(1R)-1-[4-chloro-2-(4-fluorophenyl)-1H-imidazol-5-yl]-2-(4-isoxazol-3-yl-4-oxobutoxy)ethyl]-N~2~,N~2~- dimethylglycinamide]",IC50,[1],17 nM
same,IC50,[2],106 nM
"CN1CCC2(CC1)C[C@@H]2C(=O)N[C@@H](COCCCC(=O)c1ccon1)c1[nH]c(-c2ccc(F)cc2)nc1Cl [Compound 18, (1S)-N-[(1R)-1-[4-chloro-2-(4-fluorophenyl)-1H-imidazol-5-yl]-2-(4-isoxazol-3-yl-4-oxobutoxy)ethyl]-6-methyl-6-azaspiro[2.5]octane-1-carboxamide]",IC50,[1],1.3 nM
same,IC50,[2],8.1 nM
"COc1cc2nc(C)ccc2cc1-c1cnc([C@H](COCCCC(=O)c2cc(C)on2)NC(=O)C2CN(C)C2)[nH]1 [Compound 19, N-{(1R)-1-[5-(7-methoxy-2-methylquinolin-6-yl)-1H-imidazol-2-yl]-2-[4-(5-methylisoxazol-3-yl)-4-oxobutoxy]ethyl}-1-methylazetidine-3-carboxamide]",IC50,[1],1.3 nM
same,IC50,[2],8 nM
"COc1cc2nc(C)ccc2cc1-c1cnc([C@H](COCCCC(=O)c2cc(C)on2)NC(=O)[C@H]2CC23CCN(C)CC3)[nH]1 [Compound 20, (1S)-N-{(1R)-1-[5-(7-methoxy-2-methylquinolin-6-yl)-1H-imidazol-2-yl]-2-[4-(5-methylisoxazol-3-yl)-4-oxobutoxy]ethyl}-6-methyl-6-azaspiro[2.5]octane-1-carboxamide]",IC50,[1],0.8 nM
same,IC50,[2],3.8 nM
"Cc1ccc2cc(-c3cnc([C@H](CSCCCC(=O)c4ncco4)NC(=O)[C@H]4CC45CCN(C)CC5)[nH]3)ccc2n1 [Compound 21, (1S)-6-methyl-N-[(1R)-1-[5-(2-methylquinolin-6-yl)-1H-imidazol-2-yl]-2-{[4-(1,3-oxazol-2-yl)-4-oxobutyl]sulfanyl}ethyl]-6-azaspiro[2.5]octane-1-carboxamide]",IC50,[1],1.5 nM
same,IC50,[2],2.9 nM
